In PubChem BioAssay (NCI):
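Assay format: 96-well plates, 48-hour exposure. The concentration for 50% growth inhibition is given as GI50. TGI denotes the concentration required for complete inhibition of growth.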

How the values were obtained:
Test in all cases: NCI anticancer screen, dose series, 48 h
OVCAR-8 ovarian = tested on: OVCAR-8 ovarian
IGROV1 ovarian = tested on: IGROV1 ovarian
EKVX NSCLC = tested on: EKVX NSCLC
HCT-15 colon = tested on: HCT-15 colon
HS 578T breast = tested on: HS 578T breast
UO-31 renal = tested on: UO-31 renal
K-562 leukemia = tested on: K-562 leukemia
RXF 393 renal = tested on: RXF 393 renal
SN12C renal = tested on: SN12C renal
OVCAR-4 ovarian = tested on: OVCAR-4 ovarian
BT-549 breast = tested on: BT-549 breast
HT29 colon = tested on: HT29 colon
MOLT-4 leukemia = tested on: MOLT-4 leukemia
SNB-75 CNS = tested on: SNB-75 CNS
MDA-MB-435 = tested on: MDA-MB-435
SK-MEL-28 melanoma = tested on: SK-MEL-28 melanoma
A498 renal = tested on: A498 renal
786-0 renal = tested on: 786-0 renal
SR leukemia = tested on: SR leukemia
NCI-H23 lung = tested on: NCI-H23 lung
SF-268 CNS = tested on: SF-268 CNS
MCF7 breast = tested on: MCF7 breast
RPMI-8226 leukemia = tested on: RPMI-8226 leukemia
HOP-62 NSCLC = tested on: HOP-62 NSCLC
PC-3 prostate = tested on: PC-3 prostate
UACC-257 melanoma = tested on: UACC-257 melanoma
HCT-116 colon = tested on: HCT-116 colon
COLO 205 colon = tested on: COLO 205 colon
U251 CNS = tested on: U251 CNS
SK-OV-3 ovarian = tested on: SK-OV-3 ovarian
HL-60(TB) leukemia = tested on: HL-60(TB) leukemia
MALME-3M melanoma = tested on: MALME-3M melanoma
CAKI-1 renal = tested on: CAKI-1 renal
NCI-H460 lung = tested on: NCI-H460 lung
SK-MEL-2 melanoma = tested on: SK-MEL-2 melanoma
LOX IMVI melanoma = tested on: LOX IMVI melanoma
SNB-19 CNS = tested on: SNB-19 CNS
SW-620 colon = tested on: SW-620 colon
A549 NSCLC = tested on: A549 NSCLC
M14 melanoma = tested on: M14 melanoma
MDA-MB-231 breast = tested on: MDA-MB-231 breast
T-47D breast = tested on: T-47D breast
HOP-92 NSCLC = tested on: HOP-92 NSCLC
KM12 colon = tested on: KM12 colon
NCI/ADR-RES ovarian = tested on: NCI/ADR-RES ovarian
CCRF-CEM leukemia = tested on: CCRF-CEM leukemia
UACC-62 melanoma = tested on: UACC-62 melanoma
SF-539 CNS = tested on: SF-539 CNS
NCI-H522 lung = tested on: NCI-H522 lung
NCI-H226 lung = tested on: NCI-H226 lung
SF-295 CNS = tested on: SF-295 CNS
TK-10 renal = tested on: TK-10 renal
OVCAR-3 ovarian = tested on: OVCAR-3 ovarian
HCC-2998 colon = tested on: HCC-2998 colon
DU-145 prostate = tested on: DU-145 prostate
OVCAR-5 ovarian = tested on: OVCAR-5 ovarian
ACHN renal = tested on: ACHN renal
SK-MEL-5 melanoma = tested on: SK-MEL-5 melanoma

Structure (SMILES): Cc1ccc(-c2cc(O)c(-c3ccc(C)cc3C)cc2O)c(C)c1
- GI50 (OVCAR-8 ovarian): 4.04 µM
- TGI (OVCAR-8 ovarian): 22.2 µM
- GI50 (IGROV1 ovarian): 8.25 µM
- TGI (IGROV1 ovarian): 39 µM
- GI50 (EKVX NSCLC): 5.45 µM
- TGI (EKVX NSCLC): 37.3 µM
- GI50 (HCT-15 colon): 0.54 µM
- TGI (HCT-15 colon): 18.9 µM
- GI50 (HS 578T breast): 12.7 µM
- TGI (HS 578T breast): 61.9 µM
- GI50 (UO-31 renal): 4.96 µM
- TGI (UO-31 renal): 22.4 µM
- GI50 (K-562 leukemia): 5.1 µM
- TGI (K-562 leukemia): > 100 µM
- GI50 (RXF 393 renal): 5.6 µM
- TGI (RXF 393 renal): 19.7 µM
- GI50 (SN12C renal): 5.38 µM
- TGI (SN12C renal): 18.8 µM
- GI50 (OVCAR-4 ovarian): 4.27 µM
- TGI (OVCAR-4 ovarian): 18.5 µM
- GI50 (BT-549 breast): 7.56 µM
- TGI (BT-549 breast): 26.4 µM
- GI50 (HT29 colon): 4.73 µM
- TGI (HT29 colon): 17.1 µM
- GI50 (MOLT-4 leukemia): 6.23 µM
- TGI (MOLT-4 leukemia): > 100 µM
- GI50 (SNB-75 CNS): 5.46 µM
- TGI (SNB-75 CNS): 19.7 µM
- GI50 (MDA-MB-435): 6.98 µM
- TGI (MDA-MB-435): 45.1 µM
- GI50 (SK-MEL-28 melanoma): 10.8 µM
- TGI (SK-MEL-28 melanoma): 25.5 µM
- GI50 (A498 renal): 5.32 µM
- TGI (A498 renal): 18 µM
- GI50 (786-0 renal): 7.65 µM
- TGI (786-0 renal): 21.2 µM
- GI50 (SR leukemia): 3.57 µM
- TGI (SR leukemia): 74.9 µM
- GI50 (NCI-H23 lung): 7.43 µM
- TGI (NCI-H23 lung): 26.2 µM
- GI50 (SF-268 CNS): 6.97 µM
- TGI (SF-268 CNS): 30.6 µM
- GI50 (MCF7 breast): 3.74 µM
- TGI (MCF7 breast): 23.1 µM
- GI50 (RPMI-8226 leukemia): 4.93 µM
- TGI (RPMI-8226 leukemia): 55 µM
- GI50 (HOP-62 NSCLC): 11.2 µM
- TGI (HOP-62 NSCLC): 25.9 µM
- GI50 (PC-3 prostate): 3.95 µM
- TGI (PC-3 prostate): 57.1 µM
- GI50 (UACC-257 melanoma): 5.81 µM
- TGI (UACC-257 melanoma): 19.1 µM
- GI50 (HCT-116 colon): 1.17 µM
- TGI (HCT-116 colon): 13.7 µM
- GI50 (COLO 205 colon): 10.2 µM
- TGI (COLO 205 colon): 24.6 µM
- GI50 (U251 CNS): 2.32 µM
- TGI (U251 CNS): 17.3 µM
- GI50 (SK-OV-3 ovarian): 11 µM
- TGI (SK-OV-3 ovarian): 27.3 µM
- GI50 (HL-60(TB) leukemia): 10.3 µM
- TGI (HL-60(TB) leukemia): > 100 µM
- GI50 (MALME-3M melanoma): 12.9 µM
- TGI (MALME-3M melanoma): 28.2 µM
- GI50 (CAKI-1 renal): 3.41 µM
- TGI (CAKI-1 renal): 34.3 µM
- GI50 (NCI-H460 lung): 0.923 µM
- TGI (NCI-H460 lung): 15.2 µM
- GI50 (SK-MEL-2 melanoma): 15.4 µM
- TGI (SK-MEL-2 melanoma): 30.1 µM
- GI50 (LOX IMVI melanoma): 1.92 µM
- TGI (LOX IMVI melanoma): 17.2 µM
- GI50 (SNB-19 CNS): 10.9 µM
- TGI (SNB-19 CNS): 30.9 µM
- GI50 (SW-620 colon): 5.64 µM
- TGI (SW-620 colon): 18.5 µM
- GI50 (A549 NSCLC): 3.8 µM
- TGI (A549 NSCLC): 21.6 µM
- GI50 (M14 melanoma): 6.58 µM
- TGI (M14 melanoma): 19.9 µM
- GI50 (MDA-MB-231 breast): 3.94 µM
- TGI (MDA-MB-231 breast): 21 µM
- GI50 (T-47D breast): 5.24 µM
- TGI (T-47D breast): 42.9 µM
- GI50 (HOP-92 NSCLC): 5.44 µM
- TGI (HOP-92 NSCLC): 28.9 µM
- GI50 (KM12 colon): 8.2 µM
- TGI (KM12 colon): 26.8 µM
- GI50 (NCI/ADR-RES ovarian): 4.5 µM
- TGI (NCI/ADR-RES ovarian): 32.9 µM
- GI50 (CCRF-CEM leukemia): 3.65 µM
- TGI (CCRF-CEM leukemia): > 100 µM
- GI50 (UACC-62 melanoma): 4.23 µM
- TGI (UACC-62 melanoma): 19.8 µM
- GI50 (SF-539 CNS): 10.7 µM
- TGI (SF-539 CNS): 23.2 µM
- GI50 (NCI-H522 lung): 4.67 µM
- TGI (NCI-H522 lung): 16.3 µM
- GI50 (NCI-H226 lung): 3.11 µM
- TGI (NCI-H226 lung): 19.2 µM
- GI50 (SF-295 CNS): 6.96 µM
- TGI (SF-295 CNS): 36.1 µM
- GI50 (TK-10 renal): 11.7 µM
- TGI (TK-10 renal): 42.2 µM
- GI50 (OVCAR-3 ovarian): 7.17 µM
- TGI (OVCAR-3 ovarian): 22.4 µM
- GI50 (HCC-2998 colon): 9.37 µM
- TGI (HCC-2998 colon): 21.9 µM
- GI50 (DU-145 prostate): 11.2 µM
- TGI (DU-145 prostate): 28.2 µM
- GI50 (OVCAR-5 ovarian): 18 µM
- TGI (OVCAR-5 ovarian): 33.5 µM
- GI50 (ACHN renal): 8.17 µM
- TGI (ACHN renal): 23 µM
- GI50 (SK-MEL-5 melanoma): 1.11 µM
- TGI (SK-MEL-5 melanoma): 10.2 µM
